The numbers were not newly measured in the CATMoS acute toxicity set (Mansouri et al. 2021), which cites them from elsewhere.

What is called LD50 is the dose expected to kill half of the subjects tested.

Where “and” joins values, the source holds several entries; their conditions need not be identical. Equal values may be shown once.

This series in a line: rat acute oral toxicity. Particulars: in vivo.
Turning to `CCCCC(CC)OCCOCCO` (stereo not drawn), the LD50 is 2940 mg/kg.
As for `CCOP(=O)(OCC)Sc1c(Cl)c(Cl)c(Cl)c(Cl)c1Cl`, the LD50 is 925 mg/kg.
For `C=CC(Cl)=C(Cl)Cl`, the LD50 was 680 mg/kg.
Turning to `CN1CC(CC(C#N)C(N)=O)CC2c3cccc4[nH]cc(c34)CC21` (stereo not drawn), the LD50 is 1000 mg/kg.
For the compound `CC(=O)OCC1=C(C(=O)O)N2C(=O)[C@@H](NC(=O)CSc3ccncc3)[C@H]2SC1`, the LD50 is 16400 mg/kg.
For the compound `ON=CC(O)(C#Cc1ccccc1)c1ccccc1` (stereo not drawn), the LD50 is 8750 mg/kg.
Regarding `CCN1CC(CC(N)=O)CC2c3cccc4[nH]cc(c34)CC21` (stereo not drawn), the LD50 was 38.5 mg/kg.
As to `C=C(C)C(=O)OCC`, the LD50 is 14800 mg/kg.
Regarding `OC(c1ccccc1)(c1ccccc1)C1CN2CCC1CC2` (stereo not drawn), the LD50 was 440 mg/kg.
Turning to `COc1c(OP(=S)(Oc2cnn(C)c(=O)c2OC)OC(C)C)cnn(C)c1=O`, the LD50 is 100 mg/kg.
`CCC=C(C)CO`: the LD50 is 4920 mg/kg.
For the compound `CCOC(=O)C(C#N)C(C)=O` (stereo not drawn), the LD50 was 500 mg/kg.
Regarding `CCCCC(CC)C(=O)OCCOCCOCCOCCOC(=O)C(CC)CCCC` (stereo not drawn), the LD50 is 18000 mg/kg.
With `FC(F)(F)c1nc2c(Cl)cc(Cl)c(Cl)c2[nH]1`, the LD50 was 6.33 mg/kg.
As for `O=C(O)C(F)(F)C(F)(F)C(F)(F)C(F)F`, the LD50 is 1760 mg/kg.
On to `CNC(=O)Oc1ccc(NC(C)=O)cc1`, for which the LD50 is 794 mg/kg.
On to `CCOC(=O)Nc1ccc(NCc2ccc(F)cc2)nc1N`, for which the LD50 is 1660 mg/kg.
`CCCCCCCCCCCCN`: the LD50 is 1020 mg/kg.
Turning to `CN1C(C(=O)Nc2ccccn2)C(=O)c2sc(Cl)cc2S1(=O)=O` (stereo not drawn), the LD50 was 5.73 mg/kg.
As for `Cc1cccc(C)c1NC(=O)CN1CCCC1=O`, the LD50 was 1180 mg/kg.
As for `NC(=S)Nc1ccc(-c2ccc(NC(N)=S)cc2)cc1`, the LD50 is 200 mg/kg.
Consider `Cc1ccc(SN(C)C(=O)Oc2cccc3c2OC(C)(C)C3)cc1`, for which the LD50 is 25 mg/kg.
For `CNC(=O)O[C@@H]1C[C@H](C)CC[C@H]1C(C)C`, the LD50 was 250 mg/kg.
For `CCCCN1CCCC1C(=O)Nc1c(C)cc(C)cc1C` (stereo not drawn), the LD50 is 14000 mg/kg.
Consider `COCCc1ccc(OCC(O)CNC(C)C)cc1` (stereo not drawn), for which the LD50 was 3470 mg/kg.
Turning to `CCc1ccc(C)nc1`, the LD50 was 368 mg/kg.
With `CCOC(C1=NCC(C)(C)CN1)c1ccccc1` (stereo not drawn), the LD50 was 875 mg/kg.
With `CNC(N)=S`, the LD50 is 50 mg/kg.
Turning to `CC(=O)OCCOCCOCCOC(C)=O`, the LD50 was 15600 mg/kg.
For `CN1CCC(=C2c3ccccc3Sc3ccccc32)CC1`, the LD50 was 1190 mg/kg and 550 mg/kg.
Turning to `CC1(C)OCC(CCl)O1` (stereo not drawn), the LD50 is 115 mg/kg.
Take `C=C(F)C(=O)OCC(F)(F)C(F)F`: the LD50 was 60 mg/kg.
On to `CC1CCCC(C)N1CCCNc1n[nH]c2ccccc12` (stereo not drawn), for which the LD50 was 700 mg/kg.
With `CC(C)c1ccccc1OP(=O)(Oc1ccccc1)Oc1ccccc1`, the LD50 was 10000 mg/kg.
Take `CNC(=O)Oc1cccc2c1OC(C)(C)C2O` (stereo not drawn): the LD50 is 18 mg/kg.
As for `CCCCS(=O)(=O)NC1CCCCC1`, the LD50 was 2820 mg/kg.
In the case of `CCCCOC(=O)CCCOc1ccc(Cl)cc1Cl`, the LD50 is 300 mg/kg.
As to `O=C(O)CCCCCCCl`, the LD50 is 1800 mg/kg.
With `O=NN(c1ccccc1)c1ccccc1`, the LD50 is 1820 mg/kg.
Consider `CN(C)C(=O)Nc1cc(C(C)(C)C)on1`, for which the LD50 was 630 mg/kg.
Consider `CC(=O)OC1CCCCC1`, for which the LD50 is 6730 mg/kg.
As to `COP(=S)(OC)C(C(=O)O)c1ccccc1` (stereo not drawn), the LD50 was 4500 mg/kg.
Regarding `CC(C)OCC1CO1` (stereo not drawn), the LD50 was 4200 mg/kg.
Turning to `Clc1nc(Cl)nc(Nc2ccccc2Cl)n1`, the LD50 is 2700 mg/kg.
`CC(C)=CC1C(C(=O)OCc2ccc(C)cc2C)C1(C)C` (stereo not drawn): the LD50 is 40000 mg/kg.
With `CCOc1ccc(C(=O)NCc2ccc(OCCNC)cc2)cc1OCC`, the LD50 was 3000 mg/kg.
For the compound `CC1(C)CC2(NC(=O)N(CCCN3CCC(O)CC3)C2=O)c2cc(F)ccc2O1` (stereo not drawn), the LD50 is 780 mg/kg.
As for `S=C=Nc1ccc(N=C=S)cc1`, the LD50 is 21 mg/kg.
For `CCOP(=O)(OCC)SCC1(C)SCCS1`, the median lethal dose (LD50) was 28 mg/kg.
With `N#CCCNc1ccccc1`, the LD50 was 4700 mg/kg.
Consider `CNC=O`, for which the LD50 was 4000 mg/kg.
Turning to `CCCCCCCCCCCCCCCCCCN(C(=O)CC(C(=O)O)S(=O)(=O)O)C(CC(=O)O)C(=O)O` (stereo not drawn), the LD50 is 6500 mg/kg.
With `CCc1ccc(C)cc1`, the LD50 was 4850 mg/kg.
As for `CNC(=O)N(O)c1ccccc1`, the LD50 is 3400 mg/kg.
In the case of `CN(C)C(=S)SCN1CCOCC1`, the LD50 is 1500 mg/kg.
For `C[C@H]1C(=O)O[C@@H]2CCN3CC=C(COC(=O)[C@](C)(O)[C@]1(C)O)[C@H]23`, the LD50 is 66 mg/kg.
`CCN1CCc2c3n(c4ccccc24)C(C(=O)OC)=CCC31` (stereo not drawn): the LD50 was 2350 mg/kg.
`O=c1[nH]c2c(Cl)c(Cl)c(Cl)cc2o1`: the LD50 is 1000 mg/kg.
Regarding `CC(=O)OC(c1ccccc1)C(Cl)(Cl)Cl` (stereo not drawn), the LD50 is 6800 mg/kg.
Take `N#Cc1ccc(F)cc1C#N`: the LD50 is 14 mg/kg.
For `CC(=O)SCCCCCCSC(C)=O`, the LD50 was 504 mg/kg.
For the compound `ClCCOCOCCCl`, the LD50 is 65 mg/kg.
As to `COc1ccc(C)cc1NC(C)=O`, the LD50 is 2240 mg/kg.
